Measured values from patent US10526341B2, “Thienopyrimidines and uses thereof” (Memorial Sloan-Kettering Cancer Center, priority 2014, dated 2020).
Entries after “also recorded” stand apart in the source; their conditions may differ.

Columns and labels:
fibroblasts (MRCS) [1] = assay: MI-2-2 dose-response curve, cell survival (FIG. 19H); format: cell-based, human
Procedure: (§1) FIG. 19 depicts the chemical screen of the transformed NPCs. FIG. 19A is a schematic representation of the screening strategy. A mixture of GFP-labeled normal NPCs and RFP-labeled P5K cells in a 1:3 ratio were plated into 96-well plates and each compound in the library was added in a 2-fold serial dilution for a total of 8 doses. […] Error bars indicate S.D. (n=4). […] Intracranial growth of Luciferase-labeled P5K cells was measured by quantitative in vivo bioluminescence imaging. Values indicate fold change of luminescence before and after the treatment. […] Cells were treated with MI-2 for 7 days and the number of viable cells was counted by trypan-blue staining (n=4). Error bars in panels C-D, E, F and G indicate mean±S.D. *, p<0.05; **, p<0.01. NS, Not Significant. FIG. 19H represents a dose-response curve of MI-2-2.
(§2) The normal neural precursors are being analyzed for proof of maintained phenotype and differentiation ability, in further support of the safety profile of the drug used.

[2] = tested on: normal neural precursors (NPC); assay: as above; format: cell-based, human
Procedure: as §1, §2

[3] = tested on: DIPG patient-derived tumor line; assay: as above; format: cell-based, human
Procedure: as §1, §2

SU-DIPGIV [4] = assay: alamarBlue cell viability, 12 point dose response, seven days; format: cell-based, human
Procedure: (§3) Sensitivity to MI-2-2 was assessed by a 12 point dose response curve calculated after seven days of drug exposure and alamarBlue cell viability assay. Multiple patient tumor-derived DIPG (DIPGIV, DIPGVI, MSK-1, Peds8) and Glioblastoma (070909, 030613, 050715, 042315, 040811, 040114) were tested, with fibroblasts (MRCS), hES derived NPCs and astrocytes serving as controls (see FIGS. 29-33). Dose-response curves for the treatment of NPC, DIPGIV, and DIPGVI cell lines with MI-2-2, Panobinostat, and EPZ6438 are shown in FIG. 29.

Glioblastoma 070909 [5] = assay: as above; format: cell-based, human; details: 070909, seven days
Procedure: as §3

Astrocytes [6] = assay: as above; format: cell-based, human; details: sub-micromolar doses
Procedure: as §3

fibroblasts (MRCS) [7] = assay: as above; format: cell-based, human; details: sub-micromolar doses
Procedure: as §3

hES derived NPCs = assay: as above; format: cell-based, human; details: sub-micromolar doses
Procedure: as §3

Glioblastoma 030613 [8] = assay: as above; format: cell-based, human; details: 030613, seven days
Procedure: as §3

Glioblastoma 040811 [9] = assay: as above; format: cell-based, human; details: 040811, seven days
Procedure: as §3

Glioblastoma 040114 [10] = assay: as above; format: cell-based, human; details: 040114, seven days
Procedure: as §3

Glioblastoma 050715 [11] = assay: as above; format: cell-based, human; details: 050715, seven days
Procedure: as §3

SU-DIPGVI [12] = assay: as above; format: cell-based, human
Procedure: as §3

SU-DIPGIV [13] = assay: TUNEL apoptosis assay; format: cell-based, human; details: pre-treatment 7.6
Procedure: (§4) Cell proliferation and apoptosis were assessed by immunofluorescence for Ki67 and TUNEL assays. After staining, Ki67 and TUNEL positive cells were manually counted to calculate a percentage of positive nuclei (see, e.g., FIG. 33). The pharmacokinetic profile of MI-2-2 was assessed by treating animals with 30 mg/kg and 60 mg/kg IP MI-2-2. Tail vein blood sampling and extraction of the pons was performed in animals at multiple time points and samples analyzed by LC-MS to generate a curve.

NPC [14] = assay: TUNEL apoptosis assay; format: cell-based, human; details: pre-treatment 3.8
Procedure: as §4

Fibroblasts [15] = assay: TUNEL apoptosis assay; format: cell-based, human; details: pre-treatment 0.4
Procedure: as §4

SU-DIPGVI [16] = assay: TUNEL apoptosis assay; format: cell-based, human; details: pre-treatment 14.3
Procedure: as §4

042314 = assay: alamarBlue cell viability, 12 point dose response, seven days; format: cell-based, human; details: 042314, seven days
SU-DIPGIV [17] = assay: Ki67 immunofluorescence proliferation assay; format: cell-based, human; details: pre-treatment 34.9, *p < 0.05
Procedure: as §4

Glioblastoma 070909 [18] = assay: Ki67 immunofluorescence proliferation assay; format: cell-based, human; details: pre-treatment 18.2, *p < 0.05
Procedure: as §4

Astrocytes [19] = assay: Ki67 immunofluorescence proliferation assay; format: cell-based, human; details: pre-treatment 2.4
Procedure: as §4

NPC [20] = assay: Ki67 immunofluorescence proliferation assay; format: cell-based, human; details: pre-treatment 10.6
Procedure: as §4

Fibroblasts [21] = assay: Ki67 immunofluorescence proliferation assay; format: cell-based, human; details: pre-treatment 29.6
Procedure: as §4

Glioblastoma 030613 [22] = assay: Ki67 immunofluorescence proliferation assay; format: cell-based, human; details: pre-treatment 30.4, *p < 0.05
Procedure: as §4

Glioblastoma 040811 [23] = assay: Ki67 immunofluorescence proliferation assay; format: cell-based, human; details: pre-treatment 28.4
Procedure: as §4

Glioblastoma 040114 [24] = assay: Ki67 immunofluorescence proliferation assay; format: cell-based, human; details: pre-treatment 56.0, *p < 0.05
Procedure: as §4

Glioblastoma 050715 [25] = assay: Ki67 immunofluorescence proliferation assay; format: cell-based, human; details: pre-treatment 11.9
Procedure: as §4

SU-DIPGVI [26] = assay: Ki67 immunofluorescence proliferation assay; format: cell-based, human; details: pre-treatment 26.5, *p < 0.05
Procedure: as §4

[27] = Pharmacokinetic profile of MI-2-2, blood and pons by LC-MS; format: in vivo, mice; details: 30 mg/kg systemic MI-2-2
Procedure: as §4
DIPIV xenografts were generated and are monitored monthly for BLI signal prior to randomization into treatment groups.

040114 xenografts = assay: GBM 040114 xenografts, bioluminescence imaging; format: in vivo, mice; details: 40 mg/kg BID, after three weeks
Procedure: (§5) DIPG and glioblastoma cell lines were used to generate xenografts in NSG immunocompromised mice for in vivo testing. All lines used for xenografting were transfected lentiviral vectors encoding firefly luciferase to enable bioluminescence imaging (BLI). For DIPG xenografts, 100,000 DIGIV or DIPGVI cells were stereotactically injected into the pons of cold anesthetized P6 pups by transcutaneous injection. For GBM xenografts, 500,000 cells (030613 and 040114) were injected stereotactically into the striatum of 6 week old mice anesthetized with ketamine/xylazine cocktail. […] BLI was performed every week during treatment.
(§6) BLI was performed using the IVIS Lumina II system. D-Luciferin (10 uL of 15 mg/mL solution was instilled by retro-orbital injection in mice under […] anesthesia and 5 minute exposures were collected. Fold change over baseline pre-randomization imaging was calculated.

DIPGVI xenografts = assay: DIPGVI xenografts, bioluminescence imaging; format: in vivo, mice; details: 60 mg/kg daily intraperitoneal, at 4 weeks
Procedure: as §5, §6

CC1(C)CN=C(N2CCN(c3ncnc4sc(CC(F)(F)F)cc34)CC2)S1 [MI-2-2]
survival of fibroblasts (MRCS) (fibroblasts (MRCS) [1]): highly resistant; also recorded: minimal impact on the survival
survival of normal neural precursors (NPC) [2]: highly resistant; also recorded: minimal impact on the survival
IC50 [3]: 10 nM
IC50 (SU-DIPGIV [4]): 93.4 nM
IC50 (Glioblastoma 070909 [5]): 13.5 nM
depletion of astrocytes (Astrocytes [6]): not depleted at sub-micromolar doses
depletion of fibroblasts (fibroblasts (MRCS) [7]): not depleted at sub-micromolar doses
depletion of NPCs (hES derived NPCs): not depleted at sub-micromolar doses
IC50 (Glioblastoma 030613 [8]): 9.51 nM
IC50 (Glioblastoma 040811 [9]): 113 nM
IC50 (Glioblastoma 040114 [10]): 36.4 nM
IC50 (Glioblastoma 050715 [11]): 83.4 nM
IC50 (SU-DIPGVI [12]): 121 nM
TUNEL % post-treatment (SU-DIPGIV [13]): 7.6, 21.4%
TUNEL % post-treatment (NPC [14]): 3.8, 4.0%
TUNEL % post-treatment (Fibroblasts [15]): 0.4, 0.0%
TUNEL % post-treatment (SU-DIPGVI [16]): 14.3, 17.9%
IC50 042314: 26.1 nM
Ki67 % post-treatment (SU-DIPGIV [17]): 34.9, 16.0* %
Ki67 % post-treatment (Glioblastoma 070909 [18]): 18.2, 10.8* %
Ki67 % post-treatment (Astrocytes [19]): 2.4, 4.3%
Ki67 % post-treatment (NPC [20]): 10.6, 12.1%
Ki67 % post-treatment (Fibroblasts [21]): 29.6, 27.5%
Ki67 % post-treatment (Glioblastoma 030613 [22]): 30.4, 16.2* %
Ki67 % post-treatment (Glioblastoma 040811 [23]): 28.4, 22.5%
Ki67 % post-treatment (Glioblastoma 040114 [24]): 56.0, 36.1* %
Ki67 % post-treatment (Glioblastoma 050715 [25]): 11.9, 7.8%
Ki67 % post-treatment (SU-DIPGVI [26]): 26.5, 14.4* %
In vivo blood-brain barrier (BBB) penetration [27]: penetration was demonstrated
maintenance of therapeutic levels [27]: > 6 h
BLI signal fold change in 040114 xenografts (040114 xenografts): significant reduction in signal fold change
BLI signal in DIPGVI xenografts (DIPGVI xenografts): no significant difference in BLI signal
